Measured values: patent US12171230B2, “Herbicidal compositions” (Bayer Aktiengesellschaft, priority 2018, dated 2024)

Columns and labels:
Format in all cases: in vivo
Digitaria horizontalis = assay: Post-emergence herbicidal action against Digitaria horizontalis; settings: A3/Asulam, post-emergence, g of a.i./ha by row: 720, 100, 100 + 720
Text: (§1) The following abbreviations are used in the description and the tables that follow: • g of a.i./ha=grams of active substance (active ingredient) (=100% active compound) per hectare; • The sum total of the effects of the individual applications is reported under E^A; • expected values according to Colby are each reported under E^C.
(§2) The rating period is reported in days after application (DAT).

Brachiaria plantaginea = assay: Post-emergence herbicidal action against Brachiaria plantaginea
Text: as §1, §2

Bromus sterilis = assay: Post-emergence herbicidal action against Bromus sterilis
Lolium rigidum = assay: Post-emergence herbicidal action against Lolium rigidum
Poa annua = assay: Post-emergence herbicidal action against Poa annua
Procedure, shortened: (§3)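 Weeds sown in sandy loam pots in greenhouse; treated post-emergence at three-leaf stage (three weeks after sowing) by spraying formulated compositions at various dosages in 300 to 800 l/ha water. Visual scoring versus untreated controls after about 3 to 4 weeks; synergism judged against Colby expected values.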

Alopecurus myosuroides = assay: Post-emergence herbicidal action against Alopecurus myosuroides
Veronica hederifolia = assay: Post-emergence herbicidal action against Veronica hederifolia; settings: 14 DAT
Centaurea cyano = assay: Post-emergence herbicidal action against Centaurea cyano; settings: 50 g of a.i./ha
Procedure, shortened: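 Formulations (spray powders or emulsion concentrates) applied at various doses onto foliage using 300 to 800 l/ha water; plants treated at three-leaf stage, three weeks post-sowing in sandy loam under greenhouse conditions.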

Viola tricolor = assay: Post-emergence herbicidal action against Viola tricolor
Galium aparine = assay: Post-emergence herbicidal action against Galium aparine
Procedure, shortened: as §3

[1] = test system: Lolium rigidum (resistant biotype); assay: Post-emergence herbicidal action against Lolium rigidum (resistant biotype)
Lamium purpureum = assay: Post-emergence herbicidal action against Lamium purpureum
Procedure, shortened: as §3

Matricaria inodora = assay: Post-emergence herbicidal action against Matricaria inodora
Phalaris minor = assay: Post-emergence herbicidal action against Phalaris minor

COC(=O)NS(=O)(=O)c1ccc(N)cc1 [(B2.4) Asulam]
Herbicidal action 28 DAT against Digitaria horizontalis (Digitaria horizontalis; first sub-table): 0%
Herbicidal action 28 DAT against Digitaria horizontalis (Digitaria horizontalis; second sub-table): 0%
Herbicidal action 28 DAT against Brachiaria plantaginea (Brachiaria plantaginea; A3/Asulam, post-emergence, g of a.i./ha by row: 720, 100, 100 + 720): 0%

N#Cc1cc(Br)c(O)c(Br)c1 [(B3.1) Bromoxynil]
Herbicidal action against Bromus sterilis (Bromus sterilis; 14 DAT, 50 g of a.i./ha): 0%
Herbicidal action against Bromus sterilis (Bromus sterilis; 14 DAT, 150 g of a.i./ha): 10%
Herbicidal action against Bromus sterilis (Bromus sterilis; 14 DAT, 450 g of a.i./ha): 10%
Herbicidal action against Bromus sterilis (Bromus sterilis; 28 DAT, 150 g of a.i./ha): 15%
Herbicidal action against Bromus sterilis (Bromus sterilis; 28 DAT, 450 g of a.i./ha): 20%
Herbicidal action against Lolium rigidum (Lolium rigidum; 14 DAT, 150 g of a.i./ha): 0%
Herbicidal action against Lolium rigidum (Lolium rigidum; 14 DAT, 450 g of a.i./ha): 15%
Herbicidal action against Lolium rigidum (Lolium rigidum; 28 DAT, 150 g of a.i./ha): 10%
Herbicidal action against Lolium rigidum (Lolium rigidum; 28 DAT, 450 g of a.i./ha): 20%
Herbicidal action against Poa annua L. (Poa annua; 14 DAT, 150 g of a.i./ha): 15%
Herbicidal action against Poa annua L. (Poa annua; 14 DAT, 450 g of a.i./ha): 20%
Herbicidal action against Poa annua L. (Poa annua; 28 DAT, 150 g of a.i./ha): 15%
Herbicidal action against Poa annua L. (Poa annua; 28 DAT, 450 g of a.i./ha): 25%
Herbicidal action against Alopecurus myosuroides (Alopecurus myosuroides; 14 DAT, 150 g of a.i./ha): 15%
Herbicidal action against Alopecurus myosuroides (Alopecurus myosuroides; 14 DAT, 450 g of a.i./ha): 25%
Herbicidal action against Alopecurus myosuroides (Alopecurus myosuroides; 28 DAT, 150 g of a.i./ha): 15%
Herbicidal action against Alopecurus myosuroides (Alopecurus myosuroides; 28 DAT, 450 g of a.i./ha): 25%
Herbicidal action against Veronica hederifolia (Veronica hederifolia; 150 g of a.i./ha): 0%
Herbicidal action against Veronica hederifolia (Veronica hederifolia; 450 g of a.i./ha): 20%
Herbicidal action against Centaurea cyanus (Centaurea cyano; 14 DAT): 30%
Herbicidal action against Centaurea cyanus (Centaurea cyano; 28 DAT): 10%
Herbicidal action against Viola tricolor (Viola tricolor; 14 DAT, 50 g of a.i./ha): 15%
Herbicidal action against Viola tricolor (Viola tricolor; 14 DAT, 150 g of a.i./ha): 50%
Herbicidal action against Viola tricolor (Viola tricolor; 14 DAT, 450 g of a.i./ha): 30%
Herbicidal action against Viola tricolor (Viola tricolor; 28 DAT, 50 g of a.i./ha): 25%
Herbicidal action against Viola tricolor (Viola tricolor; 28 DAT, 150 g of a.i./ha): 40%
Herbicidal action against Viola tricolor (Viola tricolor; 28 DAT, 450 g of a.i./ha): 15%
Herbicidal action against Galium aparine (Galium aparine; 14 DAT, 50 g of a.i./ha): 20%
Herbicidal action against Galium aparine (Galium aparine; 14 DAT, 150 g of a.i./ha): 30%
Herbicidal action against Galium aparine (Galium aparine; 14 DAT, 450 g of a.i./ha): 50%
Herbicidal action against Galium aparine (Galium aparine; 28 DAT, 450 g of a.i./ha): 75%
Herbicidal action against Lolium rigidum (resistant biotype) ([1]; 14 DAT, 150 g of a.i./ha): 0%
Herbicidal action against Lolium rigidum (resistant biotype) ([1]; 14 DAT, 450 g of a.i./ha): 15%
Herbicidal action against Lolium rigidum (resistant biotype) ([1]; 28 DAT, 150 g of a.i./ha): 10%
Herbicidal action against Lolium rigidum (resistant biotype) ([1]; 28 DAT, 450 g of a.i./ha): 20%
Herbicidal action against Lamium purpureum L. (Lamium purpureum; 14 DAT, 150 g of a.i./ha): 15%
Herbicidal action against Lamium purpureum L. (Lamium purpureum; 14 DAT, 450 g of a.i./ha): 40%
Herbicidal action against Lamium purpureum L. (Lamium purpureum; 28 DAT, 150 g of a.i./ha): 25%
Herbicidal action against Lamium purpureum L. (Lamium purpureum; 28 DAT, 450 g of a.i./ha): 25%
Herbicidal action against Matricaria inodora (Matricaria inodora; 14 DAT, 50 g of a.i./ha): 40%
Herbicidal action against Matricaria inodora (Matricaria inodora; 14 DAT, 450 g of a.i./ha): 85%
Herbicidal action against Matricaria inodora (Matricaria inodora; 28 DAT, 50 g of a.i./ha): 15%
Herbicidal action against Matricaria inodora (Matricaria inodora; 28 DAT, 450 g of a.i./ha): 80%
Herbicidal action against Phalaris minor (Phalaris minor; 14 DAT, 50 g of a.i./ha): 0%
Herbicidal action against Phalaris minor (Phalaris minor; 14 DAT, 150 g of a.i./ha): 10%
Herbicidal action against Phalaris minor (Phalaris minor; 14 DAT, 450 g of a.i./ha): 15%
Herbicidal action against Phalaris minor (Phalaris minor; 28 DAT, 150 g of a.i./ha): 0%
Herbicidal action against Phalaris minor (Phalaris minor; 28 DAT, 450 g of a.i./ha): 15%

COc1c(Cl)ccc(-c2nc(C(=O)O)c(Cl)c(N)c2F)c1F [(B5.23) Florpyrauxifen]
Herbicidal action 28 DAT [%] against Brachiaria plantaginea (Brachiaria plantaginea; 30 g of a.i./ha): 40%
